For the assay, the system named is evaluators. In words: Six evaluators swished a 150 ppm solution of each compound; flavor quality and cooling reported at intervals after spitting out. It counts as in vivo, human. The note with it: for quality of the flavor and cooling characteristics, 30 Minutes: 10 ml of 150 ppm solution swished 15 seconds and spit out, 30 minutes after spitting out; for cooling lasting (duration) / Peak cool at (time): 10 ml of 150 ppm solution swished 15 seconds, time after spitting out. On the procedure:
The enantiomeric compounds of the present invention, Examples 1 through 3 (E1, E2 and E3), were tested against the prior art racemic mixture of 2-(5-methyl-2-(methylethyl)-cyclohexyloxy)-ethan-1-ol (C1). Six evaluators swished 10 ml of a 150 ppm solution of each compound for 15 seconds and spit out. The quality of the flavor and cooling characteristics were reported at various intervals after spitting out.

Consider `CC1CCC(C(C)C)C(OCCO)C1` (centres unmarked) [Example C1, (d,l)-2-(5′-methyl-2′-(methylethyl)cyclohexyloxy)ethan-1-ol, reference compound], for which the “quality of the flavor and cooling characteristics, 30 Minutes” value (“quality” below) is “no cooling”; the “cooling lasting (duration)” value was in the range of 10 to 15 min.

Consider `CC(C)[C@@H]1CC[C@@H](C)C[C@H]1OCCO` [Example E1, [1′R,2′S,5′R]-2-(5′-methyl-2′-(methylethyl)cyclohexyloxy)ethan-1-ol], for which the “quality” value is “cooling”; the “Peak cool at (time)” value stood at 15 min.

In the case of `CC(C)[C@@H]1CC[C@@H](C)C[C@H]1OCCCCO` [Example E3, [1′R,2′S,5′R]-4-(5′-methyl-2′-(methylethyl)cyclohexyloxy)butan-1-ol], the “quality” value is reported as “cooling”; the “Peak cool at (time)” value stood at 7 min.

For the compound `CC(C)[C@@H]1CC[C@@H](C)C[C@H]1OCCCO` [Example E2, [1′R,2′S,5′R]-3-(5′-methyl-2′-(methylethyl)cyclohexyloxy)propan-1-ol], the “Peak cool at (time)” value was 10 to 13 min and the “cooling lasting (duration)” value is on record as “cooling 30+ min”.

(Values after US6956139B2, “(1R, 2S, 5R)-3-1-menthoxyalkan-1-OL cooling sensate” (Takasago International Corporation, priority 2000, dated 2005).)
